These results are taken from US8129397B2, “Substituted thieno[2,3-d]pyrimidines as AMPA modulators” (MSD Oss B.V., priority 2007, dated 2012).

The subject of test [1] is postnatal rat cortical neurones. Kind of test: Whole cell patch clamp recording of glutamate-evoked currents. It is filed as cell-based. The note with it: at 10 μM compound, glutamate 0.5 mM, holding potential −60 mV. On the procedure:
B: Patch Clamp Recording.
The whole cell configuration of the patch clamp technique (Hamill et al., Pflugers Arch. 1981, […], 85-100) was used to measure glutamate-evoked currents from postnatal rat cortical neurones. A glass coverslip containing the culture was transferred to the recording chamber (Warner Instrument Corp., Hamden, Conn.) mounted on the stage of an inverted microscope (Nikon, Kingston, UK). The recording chamber contained 1-2 ml extracellular solution (145 mM NaCl, 5.4 mM KCl, 10 mM HEPES, 0.8 mM MgCl2, 1.8 CaCl2, 10 mM glucose and 30 mM sucrose, adjusted to pH 7.4 with 1M NaOH) and was constantly perused at a rate of 1 ml/min. Recordings were performed at room temperature (20-22° C.) using an Axopatch 200B amplifier (Axon Instruments Ltd., Foster City, Calif.). Data acquisition and analysis was performed using Signal software (Cambridge Electronic Design Ltd., Cambridge, UK). Pipettes were manufactured from GC120F-10 glass (Harvard Apparatus, Edenbridge UK) using a model P-87 electrode puller (Sutter Instruments Co., Novarto, Calif.). The patch electrodes had typical resistances of between 3-5 MQ when filled with intracellular solution (140 mM potassium gluconate, 20 mM HEPES, 1.1 mM EGTA, 5 mM phosphocreatine, 3 mM ATP, 0.3 mM GTP, 0.1 mM Caca2, 5 mM MgCl2, adjusted to pH 7.4 with 1M KOH). […]

Another test addresses T1, AMPA (GluR1) receptor (Homo sapiens, UniProt P42261).
T1 construct: expressed in transfected cells; host or cells: HEK cells (HEK.GluR1(i)), kept under hygromycin selection
In words: Ca2+ influx fluorescence assay (FLEXstation, HEK.GluR1(i) cells). Format: cell-based. Particulars: Ca2+ influx in the presence of glutamate, Fluo-3, read-out: EC50, positive modulation of the AMPA receptor. From the text: A: Ca^2+ Influx Fluorescence Assays
The compounds in this invention may be tested using a biological assay which measures Ca^2+ influx mediated through positive modulation of the AMPA (GluR1) receptor using standard techniques in the art such as, but not limited to, a FLEXstation (manufactured by Molecular Devices, Sunnyvale, Calif.). An optical readout using fluorescent probes is employed to measure ion channel dependent changes in intracellular ion concentration or membrane potential. The assay utilises the Ca^2+ conductance of functional homomeric GluR1(i) AMPA receptors to generate glutamate-dependent Ca^2+ responses. Influx of Ca^2+ through the ion channel is measured indirectly through an increase in intracellular Ca^2+ levels using the calcium sensitive dye such as, but not limited to, Fluo-3 (Molecular Devices, Sunnyvale, Calif.) in FLEXstation. A positive AMPA receptor modulator, in the presence of glutamate, will result in an influx of Ca^2+ through the ion channel which can be measured indirectly through an increase in intracellular Ca^2+ levels using the calcium sensitive dye Fluo-3 in FLEXstation.
HEK.GluR1(i) cells were maintained in DMEM supplemented with 10% fetaclone II, 1% non-essential amino acids and 150 μg/mL hygromycin, at 37° C./5% CO2. […]

T1 sequence (P42261 19-906 isoform P42261-2 limits assumed, species assumed): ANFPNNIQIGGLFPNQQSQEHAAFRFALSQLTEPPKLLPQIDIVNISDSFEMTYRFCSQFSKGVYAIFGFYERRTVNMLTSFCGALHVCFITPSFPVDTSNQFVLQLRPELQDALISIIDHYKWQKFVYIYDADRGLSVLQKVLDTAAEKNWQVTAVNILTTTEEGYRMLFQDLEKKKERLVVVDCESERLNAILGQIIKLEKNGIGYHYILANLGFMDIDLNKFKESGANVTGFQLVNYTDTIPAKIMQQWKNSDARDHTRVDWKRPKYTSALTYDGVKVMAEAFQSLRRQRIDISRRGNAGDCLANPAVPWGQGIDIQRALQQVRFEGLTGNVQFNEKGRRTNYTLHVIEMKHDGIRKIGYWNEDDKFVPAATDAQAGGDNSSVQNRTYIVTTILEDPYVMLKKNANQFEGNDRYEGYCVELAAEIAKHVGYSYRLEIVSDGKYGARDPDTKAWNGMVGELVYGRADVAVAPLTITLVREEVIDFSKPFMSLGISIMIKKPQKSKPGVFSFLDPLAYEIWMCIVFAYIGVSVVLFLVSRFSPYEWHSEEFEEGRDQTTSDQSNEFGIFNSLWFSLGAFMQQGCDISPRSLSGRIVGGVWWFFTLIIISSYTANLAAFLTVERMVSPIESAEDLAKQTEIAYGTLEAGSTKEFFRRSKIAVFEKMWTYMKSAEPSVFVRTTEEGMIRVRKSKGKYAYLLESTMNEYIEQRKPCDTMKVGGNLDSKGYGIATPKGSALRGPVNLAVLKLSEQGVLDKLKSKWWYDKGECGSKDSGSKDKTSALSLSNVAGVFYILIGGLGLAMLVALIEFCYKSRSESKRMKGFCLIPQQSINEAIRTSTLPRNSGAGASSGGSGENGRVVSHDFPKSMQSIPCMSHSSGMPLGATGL

As for `Cc1cc2c(=O)[nH]c(Cn3cc(CNCc4nccs4)c(C(F)(F)F)n3)nc2s1` [Example 1, 6-Methyl-2-((4-((thiazol-2-ylmethylamino)methyl)-3-(trifluoromethyl)-1H-pyrazol-1-yl)methyl)thieno[2,3-d]pyrimidin-4(3H)-one], the “percentage increase in steady state current” value in test [1] came out at 235±44%. The EC50 at AMPA (GluR1) receptor came out at 1000 nM.

As usually defined, the EC50 is the concentration that produces a half-maximal response.
